Test results as given in patent US20250099434A1, “METHODS OF TREATING AMYLOID RELATED BRAIN DISORDERS USING NOVEL COMPOUNDS AND ANTIBODIES” (T3D Therapeutics, Inc., priority 2022, published 2025).

Columns and labels:
human PPARγ = molecular target: T1, human PPARγ (Homo sapiens, UniProt P37231); test: Human PPAR activation, transient transfection in CV-1 cells (gamma subtype); type: cell-based
T1 construct: expressed in transfected cells; host or cells: CV-1 cells
T1 sequence (P37231 1-505): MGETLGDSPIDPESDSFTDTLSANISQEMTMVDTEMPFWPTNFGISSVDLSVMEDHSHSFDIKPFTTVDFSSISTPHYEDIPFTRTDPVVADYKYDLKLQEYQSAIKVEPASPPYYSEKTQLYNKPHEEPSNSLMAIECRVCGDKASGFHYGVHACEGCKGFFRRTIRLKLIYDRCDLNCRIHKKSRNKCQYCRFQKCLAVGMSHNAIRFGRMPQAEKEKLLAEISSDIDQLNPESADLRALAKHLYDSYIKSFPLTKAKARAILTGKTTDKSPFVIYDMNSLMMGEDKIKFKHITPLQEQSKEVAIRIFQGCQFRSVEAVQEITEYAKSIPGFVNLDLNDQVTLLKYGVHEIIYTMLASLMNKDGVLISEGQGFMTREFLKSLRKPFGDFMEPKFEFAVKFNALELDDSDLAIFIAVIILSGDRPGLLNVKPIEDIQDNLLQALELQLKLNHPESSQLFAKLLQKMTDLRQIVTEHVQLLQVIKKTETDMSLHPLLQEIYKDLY
Text: PPAR receptor agonist activity may be determined by conventional screening methods known to the skilled in the art. For example, methods described in U.S. Patent Application Publication No. 2007/0054907, 2008/0262047 and U.S. Pat. No. 7,314,879, which are incorporated by reference in their entireties.
The table summarize the results of studies performed in transfected CV-1 cells with three different lots of Compound of Example 11. […].

human PPARδ = molecular target: T2, human PPARδ (Homo sapiens, UniProt Q03181); test: Human PPAR activation, transient transfection in CV-1 cells (δ subtype); type: cell-based
T2 construct: expressed in transfected cells; host or cells: CV-1 cells
T2 sequence (Q03181 1-441): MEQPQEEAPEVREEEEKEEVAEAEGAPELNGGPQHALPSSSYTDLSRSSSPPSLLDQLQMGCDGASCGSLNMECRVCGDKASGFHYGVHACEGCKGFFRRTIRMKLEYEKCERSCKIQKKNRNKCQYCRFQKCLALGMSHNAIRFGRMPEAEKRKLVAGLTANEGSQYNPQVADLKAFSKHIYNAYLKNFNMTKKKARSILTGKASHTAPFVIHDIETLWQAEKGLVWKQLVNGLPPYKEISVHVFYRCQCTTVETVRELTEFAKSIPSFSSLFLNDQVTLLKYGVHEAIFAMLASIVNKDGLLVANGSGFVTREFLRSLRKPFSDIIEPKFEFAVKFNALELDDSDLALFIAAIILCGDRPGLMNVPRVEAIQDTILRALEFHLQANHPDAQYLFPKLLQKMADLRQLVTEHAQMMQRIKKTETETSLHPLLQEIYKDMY

P-glycoprotein (P-gp) = P-glycoprotein (P-gp) (Homo sapiens, UniProt P08183); test: P-gp substrate assessment (Caco-2, verapamil)
P-glycoprotein (P-gp), sequence (P08183 whole entry): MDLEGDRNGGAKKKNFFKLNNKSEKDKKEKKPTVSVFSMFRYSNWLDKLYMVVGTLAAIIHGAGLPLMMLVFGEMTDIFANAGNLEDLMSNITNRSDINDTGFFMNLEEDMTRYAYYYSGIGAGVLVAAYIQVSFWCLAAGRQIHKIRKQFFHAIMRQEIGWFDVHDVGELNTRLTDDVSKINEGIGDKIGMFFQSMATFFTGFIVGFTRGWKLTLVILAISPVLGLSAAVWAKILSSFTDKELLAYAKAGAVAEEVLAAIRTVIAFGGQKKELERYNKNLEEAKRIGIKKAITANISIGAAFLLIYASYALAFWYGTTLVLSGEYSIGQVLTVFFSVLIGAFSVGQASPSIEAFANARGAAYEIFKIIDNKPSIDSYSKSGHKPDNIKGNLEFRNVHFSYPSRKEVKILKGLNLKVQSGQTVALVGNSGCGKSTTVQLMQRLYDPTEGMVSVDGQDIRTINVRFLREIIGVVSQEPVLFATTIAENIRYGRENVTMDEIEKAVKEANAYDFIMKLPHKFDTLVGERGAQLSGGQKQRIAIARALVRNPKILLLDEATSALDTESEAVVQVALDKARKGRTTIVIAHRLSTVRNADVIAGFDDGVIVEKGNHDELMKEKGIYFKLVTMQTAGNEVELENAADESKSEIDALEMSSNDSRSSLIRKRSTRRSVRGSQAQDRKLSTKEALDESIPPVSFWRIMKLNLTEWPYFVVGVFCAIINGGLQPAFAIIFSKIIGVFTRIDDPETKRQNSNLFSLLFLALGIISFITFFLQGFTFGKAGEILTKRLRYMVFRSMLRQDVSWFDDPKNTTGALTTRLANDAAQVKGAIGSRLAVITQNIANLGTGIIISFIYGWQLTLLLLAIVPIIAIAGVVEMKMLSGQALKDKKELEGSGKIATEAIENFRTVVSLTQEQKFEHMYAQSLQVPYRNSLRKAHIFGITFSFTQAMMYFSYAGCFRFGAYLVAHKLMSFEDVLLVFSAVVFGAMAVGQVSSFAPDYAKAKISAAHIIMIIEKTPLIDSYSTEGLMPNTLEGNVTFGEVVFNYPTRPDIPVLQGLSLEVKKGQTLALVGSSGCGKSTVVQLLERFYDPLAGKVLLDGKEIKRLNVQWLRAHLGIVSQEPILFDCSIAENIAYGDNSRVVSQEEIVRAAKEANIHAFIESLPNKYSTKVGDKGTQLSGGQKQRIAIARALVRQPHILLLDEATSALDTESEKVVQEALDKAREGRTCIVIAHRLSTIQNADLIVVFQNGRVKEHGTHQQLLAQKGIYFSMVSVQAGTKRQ

## CCc1oc(-c2ccc(OC)cc2)nc1CCOc1ccc2c(c1)CC[C@H]2CC(=O)[O-].[Na+] [Example 11, Sodium (S)-2-(5-(2-(5-ethyl-2-(4-methoxyphenyl)oxazol-4-yl)ethoxy)-2,3-dihydro-1H-inden-1-yl)acetate]
Human PPARγ
  Peak effect PPARγ: 29.49
Human PPARδ
  Peak effect PPARδ: 17.68
  greater potency in activating human PPARδ subtype over human PPARγ subtype: 15 fold
P-glycoprotein (P-gp)
  substrate for P-gp: not a substrate for P-gp
